According to article PMC12539213, “Molecular targeting of the deubiquitinase USP14 to circumvent cisplatin resistance in ovarian carcinoma and identification of novel inhibitors” (Cancer Drug Resistance, 2025):

Assays:
[1] = biological target: T1, USP14 (ubiquitin-specific protease 14) (Homo sapiens, UniProt P54578); test: Ub-Rho110-G hydrolysis assay, recombinant USP14 with Ub-VS-treated […] proteasome, dose-response; assay type: biochemical
T1 construct: USP14 (6His-tagged), 64-0018-050, Ubiquigent; with Ub-VS-treated human 26S proteasome
T1 sequence (P54578 whole entry): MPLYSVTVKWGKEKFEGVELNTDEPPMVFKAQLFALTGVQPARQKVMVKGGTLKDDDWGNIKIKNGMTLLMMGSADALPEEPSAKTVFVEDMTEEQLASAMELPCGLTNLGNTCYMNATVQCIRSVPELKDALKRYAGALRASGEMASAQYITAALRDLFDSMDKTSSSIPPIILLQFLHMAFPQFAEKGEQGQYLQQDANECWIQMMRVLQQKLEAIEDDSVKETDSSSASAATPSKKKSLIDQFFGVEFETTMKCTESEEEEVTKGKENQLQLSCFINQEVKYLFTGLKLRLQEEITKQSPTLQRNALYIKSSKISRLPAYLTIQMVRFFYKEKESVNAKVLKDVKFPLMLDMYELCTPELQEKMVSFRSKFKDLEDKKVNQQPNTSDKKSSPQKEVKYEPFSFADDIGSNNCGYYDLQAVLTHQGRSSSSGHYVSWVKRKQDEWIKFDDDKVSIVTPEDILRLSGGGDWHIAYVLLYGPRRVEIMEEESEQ

[2] = biological target: T1, USP14 (ubiquitin-specific protease 14); test: Ub-Rho110-G hydrolysis assay, positive control at […] ([…] inhibition) and […] ([…]); also HA-Ub-VS labeling in IGROV-1/Pt1 cells; assay type: biochemical

IC50 [1] | Structure (SMILES) | IC50 [2]
18.4 ± 2.2 µM | CC1=NN(c2cccc(NC(=O)c3ccccc3Cn3ccnc3)c2)C(=O)C1 [ARN12502] | –
– | Cc1cc(C(=O)CN2CCCCC2)c(C)n1-c1ccc(Cl)cc1 [IU1-47] | ~ 200 nM
